Read-outs that look alike come from different tables or passages of the source.
Tests used:
Type in all cases: in vivo
Aristotle bell pepper = conditions: 1 week after treatment, scale 0 = no visible injury, 10 = plant death
In short: (§1)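 Florida-47 tomato and Aristotle bell pepper transplants in 2-gal pots with low-nutrient medium (pH 5.36), drip-irrigated; products at three rates in deionized water plus non-ionic surfactant sprayed on newly matured leaves at 3 and 7 WAT. Toxicity scored at 4 WAT (0=no damage, 10=death); foliar tissue analysed at 6 WAT; marketable fruit harvested 4 times (tomato).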

Florida-47 tomato [1] = conditions: for Tomato toxicity: 1 week after treatment, scale 0 = no visible injury, 10 = plant death
In short: as §1

Florida-47 tomato [2] = assay: Foliar nutrient concentration at 6 WAT, greenhouse Fall 2007, tomato; conditions: Example 2; crop not specified (tomato / bell pepper)
Procedure: The following experiments were performed in a green house during the fall of 2007 at GCREC, Balm, University of Florida. Fifteen products, at 3 different application rates were examined. The plot size was 2-gallon pots. Crop set-up, procedures and variables were as follows.
Transplants of ‘Florida-47’ tomato and ‘Aristotle’ bell pepper plants in the 4-true leaf stage (about 6 inches tall) were planted in 2-gal pots on Aug. 27, 2007. Pots were filled with a commercially available planting medium. This medium was selected based on the mineral composition of the products to be applied without providing significant nutritional inputs to the crops. Irrigation was provided with drip lines delivering between 0.50 and 0.33 gal/day/pot for tomato and bell pepper, respectively, and the crops were irrigated three times per day. No foliar pesticides were necessary. […]
Medium nutrient concentration was determined 1 week before treatment. […] The foliar tissue analysis was performed at 6 WAT and the concentration of N, P, K, Mg, Ca, S, B, Zn, Mn, Fe, and Cu was determined by a commercial laboratory. Plant toxicity was determined at 4 WAT by using a 0-10 visual scale, where 0=no visible damage and 10=total plant death. […]
Data were analyzed using a general linear model, and means were separated using orthogonal contrasts at the 5% significance level.

Tygress tomato plants = assay: Yields of tomato fruits, greenhouse (Examples 4-6); conditions: for Marketable yield: tomato fruits
In short: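 Tygress tomato in 2-gallon pots of micronutrient-poor medium (negligible Fe, Zn, Mn, Cu) in greenhouse; foliar treatments at 5 WAT in 200 mL/plant water with non-ionic surfactant. Newest non-applied leaves analysed 2 weeks before and after treatment; marketable fruit harvested three times from 10 WAT, graded. RCBD, 6 replications, LSD 5%.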

[3] = test system: soybean plants (Asgrow 1102); assay: Soybean seed yield (Examples 11-12)
Procedure: The following experiments were performed on soybean plants growing in open-field plots during the summer and fall of 2008 at two production fields in West Central Minnesota. […] Trial design was a randomized complete block with 4 replications. Each plot measured 10' by 30' and consisted of five 22'' rows. Although all five rows of each plot were treated, only the center three rows (25' in length) of each plot were machine harvested. The two fields selected for these studies had historical Iron Deficiency Chlorosis (IDC) issues. The two field sites were planted by farmers with elite Roundup Ready commodity type soybean varieties with IDC tolerance (Asgrow 1102, Monsanto Corp.). […] BIOX-M was applied at a rate of 1.12 kg Mn/ha. […] All V4 treatments were applied in 10 gallons per acre of water with a backpack sprayer with a hand boom designed to “band” apply product directly to the plant row. Three nozzles with ConeJet TXVS-2 tips were oriented on either side and over the top of each row. This maximized the applied product to the plant tissue itself and minimized application of product to the soil surface. […] The V6 treatments (where applicable) were applied in 20 gallons per acre of water to increase the suspension of the BIOX products. Soybean seed was harvested after soybean maturity was reached (3 October at […], and 17 Oct. 2008 at Foxhome) and seed yields for each experimental treatment group were determined. In addition, seed samples from each treatment were dried to 13% moisture content, then analyzed for protein and oil content.

Compound | Pepper toxicity (Aristotle bell pepper; High rate) | Pepper toxicity (Aristotle bell pepper; Low rate) | Pepper toxicity (Aristotle bell pepper; Medium rate) | Tomato toxicity (Florida-47 tomato [1]; High rate) | Tomato toxicity (Florida-47 tomato [1]; Low rate) | Tomato toxicity (Florida-47 tomato [1]; Medium rate) | Marketable yield (Tygress tomato plants; Zn 0.4 lb/acre) [a lb/plant] | also measured
CSCCC(O)C(=O)[O-].CSCCC(O)C(=O)[O-].[Cu+2] (stereo not shown) [BIOX-Cu, Cu-HMTBA] | 0 | 0 | 0 | 0 | 0 | 0 | – | Foliar injury (in words) (Florida-47 tomato [1]; copper concentration of 0.004% to 0.061% by weight, tomato and bell pepper stated together): no foliar injury; Foliar Cu relative to the non-Cu control (Florida-47 tomato [2]): about 4 times
EDTA chelated zinc [BIOX-EDZ] | 0 | 0 | 0 | 0 | 0 | 0 | 3.5 | –
CSCCC(O)C(=O)[O-].CSCCC(O)C(=O)[O-].[Mn+2] (stereo not shown) [BIOX-M, Mn-HMTBA] | 0 | 0 | 0 | 0 | 0 | 0 | – | Toxic effect on the plant (in words) (Florida-47 tomato [1]; manganese concentration of 0.015% to 0.124% by weight, both crops): no toxic effect; Marketable tomato yield compared with non-treated control (in words) (Tygress tomato plants; BIOX-M at 1.23 lb/acre or more, BIOX-EDM at 2.0 lb/acre, Mn-sulfate at 1.0 lb/acre): significantly higher than the non-treated control; Marketable yield (Tygress tomato plants; Mn 0.31 lb/acre): 2.2 b lb/plant; Marketable yield (Tygress tomato plants; Mn 0.62 lb/acre): 2.1 b lb/plant; Marketable yield (Tygress tomato plants; Mn 1.23 lb/acre): 4.2 a lb/plant; Marketable yield (Tygress tomato plants; Mn 2.46 lb/acre): 4.3 a lb/plant; Yield ([3]; 7.0 kg/ha, V4, Foxhome): 43.63 Bu/A; Yield ([3]; 7.0 kg/ha, V4, Renville): 24.15 Bu/A
CSCCC(O)C(=O)[O-].CSCCC(O)C(=O)[O-].[Zn+2] (stereo not shown) [BIOX-Z, Zn-HMTBA] | 0 | 0 | 0 | 0 | 0 | 0 | 3.9 | Marketable yields compared with the other Zn formulations (in words) (Tygress tomato plants; BIOX-Z at a concentration higher than 0.1 lb/acre): statistically similar to the other Zn supplementation treatment formulations; Marketable yield (Tygress tomato plants; Zn 0.1 lb/acre): 2.3 b lb/plant; Marketable yield (Tygress tomato plants; Zn 0.2 lb/acre): 3.7 a lb/plant; Marketable yield (Tygress tomato plants; Zn 0.8 lb/acre): 3.8 a lb/plant; Foliar Zn concentration relative to the non-Zn control (Florida-47 tomato [2]): approximately 3 times
Fe-HMTBA [BIOX-Fe] | – | – | – | – | – | – | – | Yield ([3]; 0.558 kg/ha, V4, V6, Foxhome): 46.01 Bu/A; Yield ([3]; 0.558 kg/ha, V4, V6, Renville): 27.65 Bu/A; Yield ([3]; 0.558 kg/ha, V4, Foxhome): 43.17 Bu/A; Yield ([3]; 0.558 kg/ha, V4, Renville): 27.92 Bu/A; Yield ([3]; 1.12 kg/ha, V4, V6, Foxhome): 43.43 Bu/A; Yield ([3]; 1.12 kg/ha, V4, V6, Renville): 26.62 Bu/A; Yield ([3]; 1.12 kg/ha, V4, Foxhome): 44.23 Bu/A; Yield ([3]; 1.12 kg/ha, V4, Renville): 27.43 Bu/A

Source: patent US20110098177A1, “METHODS AND COMPOSITIONS OF PLANT MICRONUTRIENTS” (NOVUS INTERNATIONAL INC., priority 2006, published 2011)
